Assay results from patent US20230017532A1 (Hoffmann-La Roche Inc., priority 2018, published 2023).
Where a name gives a salt, the structure may show the parent alone.

Tested on: Acinetobacter baumannii ATCC17978
Test: Antimicrobial susceptibility testing: 90% growth inhibitory concentration (IC90) determination, Iso-Sensitest broth, OD 600 nm
Assay type: cell-based
Settings: 90% growth inhibitory concentration, Acinetobacter baumannii ATCC17978, Iso-Sensitest broth, OD 600 nm over 16 h; read-out: ATCC 17978 IC90
Procedure: Antimicrobial Susceptibility Testing:
90% Growth Inhibitory Concentration (IC90) Determination
The in vitro antimicrobial activity of the compounds was determined according to the following procedure:
The assay used a 10-points Iso-Sensitest broth medium to measure quantitatively the in vitro activity of the compounds against Acinetobacter baumannii ATCC17978 and Acinetobacter baumannii ATCC17961.
Stock compounds in DMSO were serially twofold diluted (e.g. range from 50 to 0.097 μM final concentration) in 384 wells microtiter plates and inoculated with 49 μl the bacterial suspension in Iso-Sensitest medium to have a final cell concentration of ˜5×10^(5) CFU/ml in a final volume/well of 50 ul/well. Microtiter plates were incubated at 35±2° C.
Bacterial cell growth was determined with the measurement of optical density at λ=600 nm each 20 minutes over a time course of 16 h. Growth inhibition was calculated during the logarithmic growth of the bacterial cells with determination of the concentration inhibiting 50% (IC50) and 90% (IC90) of the growth.
Table 1 provides the 90% growth inhibitory concentrations (IC90) in micromoles per liter of the compounds of present invention obtained against the strain Acinetobacter baumannii ATCC17978 and Acinetobacter baumannii ATCC17961.

SMILES | IC90
COc1ccc(-c2cnc3c(Nc4ccc(C(=O)NCCOCCN5CCNCC5)c(C)c4)nccn23)cc1 [Example 44, 4-[[3-(4-methoxyphenyl)imidazo[1,2-a]pyrazin-8-yl]amino]-2-methyl-N-[2-(2-piperazin-1-ylethoxy)ethyl]benzamide;dihydrochloride] | 460 nM
COc1ccc(-c2cnc3c(Nc4ccc(C(=O)NCCOCCN)c(C)c4)nccn23)cc1 [Example 77] | 230 nM

Same assay, conditions: Acinetobacter baumannii, ATCC17978, 16 h, 90% growth inhibitory concentration, Acinetobacter baumannii ATCC17978, Iso-Sensitest broth, OD 600 nm over 16 h; read-out: ATCC 17978 IC90

IC90 | SMILES
310 nM | CCc1cc(Nc2nccn3c(-c4ccc(OCC(=O)OC)c(F)c4F)cnc23)ccc1C(=O)NCCOCCN [Example 172, formic acid; methyl 2-[4-[8-[4-[2-(2-aminoethoxy)ethylcarbamoyl]-3-ethylanilino]imidazo[1,2-a]pyrazin-3-yl]-2,3-difluorophenoxy] acetate]
67 nM | CCc1cc(Nc2nccn3c(-c4ccc(OCC#N)c(F)c4Cl)cnc23)ccc1C(=O)NCCOCCN(C)C [Example 22, 4-[[3-[2-chloro-4-(cyanomethoxy)-3-fluoro-phenyl]imidazo[1,2-a]pyrazin-8-yl]amino]-N-[2-[2-(dimethylamino)ethoxy]ethyl]-2-ethyl-benzamide]
1200 nM | CN(CCOCCN1CCCC(C(=O)O)C1)C(=O)c1ccc(Nc2nccn3c(-c4ccc(OCC#N)c(F)c4F)cnc23)cc1Cl (stereo not shown) [Example 176, 1-[2-[2-[[2-chloro-4-[[3-[4-(cyanomethoxy)-2,3-difluorophenyl]imidazo[1,2-a]pyrazin-8-yl]amino]benzoyl]-methylamino]ethoxy]ethyl] piperidine-3-carboxylic acid; formic acid]
630 nM | Cc1cc(Nc2nccn3c(-c4ccc(OCC#CCN)cc4)cnc23)ccc1C(=O)NCCOCCN [Example 123, 4-[[3-[4-(4-aminobut-2-ynoxy)phenyl]imidazo[1,2-a]pyrazin-8-yl]amino]-N-[2-(2-aminoethoxy)ethyl]-2-methylbenzamide; formic acid]
1200 nM | Cc1cc(Nc2nccn3c(-c4ccc(OC(F)F)cc4)cnc23)ccc1C(=O)NCCOCCNC(=O)CN1CCN(C)CC1 [Example 143, 4-[[3-[4-(difluoro-methoxy)phenyl]imidazo [1,2-a]pyrazin-8-yl]amino]-2-methyl-N-[2-[2-[[2-(4-methylpiperazin-1-yl)acetyl]amino]ethoxy]ethyl] benzamide]
580 nM | Cc1cc(Nc2nccn3c(-c4ccc(OC(F)F)cc4)cnc23)ccc1C(=O)NCCOCCN1CC2(COC2)C1 [Example 114, 4-[[3-[4-(difluoromethoxy)phenyl]imidazo [1,2-a]pyrazin-8-yl]amino]-2-methyl-N-[2-[2-(2-oxa-6-azaspiro [3.3]heptan-6-yl)ethoxy]ethyl] benzamide]
290 nM | COc1ccc(-c2cnc3c(Nc4ccc5c(c4)CCN(CCOCCN)C5=O)nccn23)c(F)c1F [Example 171, 2-[2-(2-aminoethoxy)ethyl]-6-[[3-(2,3-difluoro-4-methoxyphenyl)imidazo[1,2-a]pyrazin-8-yl]amino]-3,4-dihydroiso-quinolin-1-one;2,2,2-trifluoroacetic acid]
1200 nM | CCc1cc(Nc2nccn3c(-c4ccc(OC)c(F)c4F)cnc23)ccc1C(=O)NCCNCCCN [Example 188, N-[2-(3-amino-propylamino)ethyl]-4-[[3-(2,3-difluoro-4-methoxyphenyl)imidazo[1,2-a]pyrazin-8-y]amino]-2-ethylbenzamide; formic acid]
2400 nM | COc1ccc(-c2cnc3c(Nc4ccc(C(=O)NCCNCCC[C@H](N)C(=O)O)c(C)c4)nccn23)c(F)c1F [Example 189, (2S)-2-amino-5-[2-[[4-[[3-(2,3-difluoro-4-methoxyphenyl)imidazo[1,2-a]pyrazin-8-yl]amino]-2-methyl-benzoyl]amino]ethylamino] pentanoic acid]
1000 nM | Cc1cc(Nc2nccn3c(-c4ccc(OC(F)F)cc4)cnc23)ccc1C(=O)NCCOCCOCCOCCN=[N+]=[N-] [Example 139, N-[2-[2-[2-(2-azidoethoxy)ethoxy]ethoxy]ethyl]-4-[[3-[4-(difluoro-methoxy)phenyl]imidazo [1,2-a]pyrazin-8-yl]amino]-2-methylbenzamide]
570 nM | Cc1cc(Nc2nccn3c(-c4ccc(OC(F)F)cc4)cnc23)ccc1C(=O)NCCOCCOCCN [Example 16, N-(2-(2-(2-aminoethoxy)ethoxy)ethyl)-4-((3-(4-(difluoromethoxy)phenyl)imidazo[1,2-a]pyrazin-8-yl)amino)-2-methylbenzamide]
590 nM | CCc1cc(Nc2nccn3c(-c4ccc(OC)c(F)c4F)cnc23)ccc1C(=O)NCCCNCCN [Example 185, N-[3-(2-aminoethyl-amino)propyl]-4-[[3-(2,3-difluoro-4-methoxyphenyl)imidazo[1,2-a]pyrazin-8-yl]amino]-2-ethylbenzamide; 2,2,2-trifluoro-acetic acid]
560 nM | COc1ccc(-c2cnc3c(Nc4ccc(C(=O)NCCOCCN5CCOC(CN)C5)c(C)c4)nccn23)cc1F (stereo not shown) [Example 111, N-[2-[2-[2-(aminomethyl)morpholin-4-yl]ethoxy]ethyl]-4-[[3-(3-fluoro-4-methoxyphenyl)imidazo[1,2-a]pyrazin-8-yl]amino]-2-methylbenzamide; hydrochloride]
860 nM | Cc1cc(Nc2nccn3c(-c4ccc(OC(F)F)cc4)cnc23)ccc1C(=O)N(C)CCOCCN [Example 136, N-[2-(2-aminoethoxy)ethyl]-4-[[3-[4-(difluoro-methoxy)phenyl]imidazo [1,2-a]pyrazin-8-yl]amino]-N,2-dimethyl-benzamide; hydrochloride]
560 nM | CCN(C(=O)NCCCN(C)C)C(=O)c1ccc(Nc2nccn3c(-c4ccc(OCC#N)c(F)c4F)cnc23)cc1Cl [Example 27, 2-chloro-4-[[3-[4-(cyanomethoxy)-2,3-difluoro-phenyl]imidazo[1,2-a]pyrazin-8-yl]amino]-N-[3-(dimethylamino)propylcarbamoyl]-N-ethyl-benzamide]
960 nM | Cc1cc(Nc2nccn3c(-c4ccc(Cl)cc4)cnc23)ccc1C(=O)N(C)CCOCCN [Example 138, N-[2-(2-aminoethoxy)ethyl]-4-[[3-(4-chlorophenyl)imidazo[1,2-a]pyrazin-8-yl]amino]-N,2-dimethyl-benzamide; hydrochloride]
480 nM | COc1ccc(-c2cnc3c(Nc4ccc(C(=O)NCCOCCN5CCOCC5)c(C)c4)nccn23)cc1 [Example 106, 4-[[3-(4-methoxyphenyl)imidazo[1,2-a]pyrazin-8-yl]amino]-2-methyl-N-[2-(2-morpholin-4-ylethoxy)ethyl] benzamide]
790 nM | COc1ccc(-c2cnc3c(Nc4ccc(C(=O)N(C)CCOCCN5CCNCC5)c(C)c4)nccn23)cc1 [Example 133, formic acid; 4-[[3-(4-methoxyphenyl)imidazo[1,2-a]pyrazin-8-yl]amino]-N,2-dimethyl-N-[2-(2-piperazin-1-ylethoxy)ethyl] benzamide]
250 nM | COc1ccc(-c2cnc3c(Nc4ccc(C(=O)NCCOCCN5CC6(COC6)C5)c(C)c4)nccn23)cc1 [Example 42, N-(2-(2-(2-oxa-6-azaspiro[3.3]heptan-6-yl)ethoxy)ethyl)-4-((3-(4-methoxyphenyl)imidazo[1,2-a]pyrazin-8-yl)amino)-2-methylbenzamide]
590 nM | COc1ccc(-c2cnc3c(Nc4ccc(C(=O)NCCOCC(=O)N5CCN(C)CC5)c(C)c4)nccn23)cc1 [Example 115]
50 nM | CCc1cc(Nc2nccn3c(-c4ccc(OC)c(F)c4F)cnc23)ccc1C(=O)NCCOCCN [Example 86]
640 nM | Cc1cc(Nc2nccn3c(-c4ccc(OC(F)F)cc4)cnc23)ccc1C(=O)NCCOCCN1CCC2(COC2)C1 [Example 83, 4-[[3-[4-(difluoromethoxy)phenyl]imidazo [1,2-a]pyrazin-8-yl]amino]-2-methyl-N-[2-[2-(2-oxa-7-azaspiro [3.4]octan-7-yl)ethoxy]ethyl]benzamide]

Same assay, conditions: Acinetobacter baumannii, ATCC17978, 16 h, read-out: ATCC 17978 IC90

SMILES | IC90
CCc1cc(Nc2nccn3c(-c4ccc(OC)cc4N)cnc23)ccc1C(=O)NCCOCCN [Example 57, 4-((3-(2-amino-4-methoxyphenyl)imidazo[1,2-a]pyrazin-8-yl)amino)-N-(2-(2-aminoethoxy)ethyl)-2-ethylbenzamide hydrochloride] | 650 nM
CCc1cc(Nc2nccn3c(-c4ccc(OC)c(F)c4F)cnc23)ccc1C(=O)NCCOC(C)(C)CN [Example 71, N-[2-(2-amino-1,1-dimethyl-ethoxy)ethyl]-4-[[3-(2,3-difluoro-4-methoxy-phenyl)imidazo[1,2-a]pyrazin-8-yl]amino]-2-ethyl-benzamide; formic acid] | 28 nM
CCc1cc(Nc2nccn3c(-c4ccc(OC)c(F)c4F)cnc23)ccc1C(=O)NCCOCCNCC(=O)O [Example 70, 2-[2-[2-[[4-[[3-(2,3-difluoro-4-methoxy-phenyl)imidazo[1,2-a]pyrazin-8-yl]amino]-2-ethyl-benzoyl]amino]ethoxy]ethylamino]acetic acid; formic acid] | 490 nM
CCc1cc(Nc2nccn3c(-c4c(F)cc(OC)cc4F)cnc23)ccc1C(=O)NCCOCCN [Example 54, N-[2-(2-aminoethoxy)ethyl]-4-[[3-(2,6-difluoro-4-methoxyphenyl)imidazo[1,2-a]pyrazin-8-yl]amino]-2-ethylbenzamide hydrochloride] | 320 nM
